# Results: patent publication US6737383B1, “Herbicidal oxadiazolidines” (priority 1999, dated 2004)
# Tests used:
# rape = assay: Test B pre/postemergence rape; assay type: in vivo, Brassica napus
# In short: (§1)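 Herbicidal effect was estimated by eye on a ten-point control scale after plants spent twelve to sixteen days in a greenhouse following soil or foliar treatment. Foliar sprays targeted plants at one to four leaves; all doses were formulated in a non-phytotoxic solvent with surfactant.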
# wild oat = assay: Test B pre/postemergence wild oat; assay type: in vivo, Avena fatua
# In short: as §1
# corn = assay: Test B pre/postemergence corn; assay type: in vivo, Zea mays
# In short: as §1
# pigweed = assay: Test B pre/postemergence pigweed; assay type: in vivo, Amaranthus retroflexus
# In short: as §1
# soybean = assay: Test B pre/postemergence soybean; assay type: in vivo, Glycine max
# In short: as §1
# bedstraw = assay: Test B pre/postemergence bedstraw; assay type: in vivo, Galium aparine; details: Preemergence
# In short: as §1
# sugar beet = assay: Test B pre/postemergence sugar beet; assay type: in vivo, Beta vulgaris
# In short: as §1
# blackgrass = assay: Test B pre/postemergence blackgrass; assay type: in vivo, Alopecurus myosuroides
# In short: as §1
# cocklebur = assay: Test B pre/postemergence cocklebur; assay type: in vivo, Xanthium strumarium
# In short: as §1
# morningglory = assay: Test B pre/postemergence morningglory; assay type: in vivo, Ipomoea hederacea
# In short: as §1
# purple nutsedge = assay: Test B pre/postemergence purple nutsedge; assay type: in vivo, Cyperus rotundus
# In short: as §1
# surinam grass = assay: Test B pre/postemergence surinam grass; assay type: in vivo, Brachiaria decumbens
# In short: as §1
# wheat = assay: Test B pre/postemergence wheat; assay type: in vivo, Triticum aestivum
# In short: as §1
# crabgrass = assay: Test B pre/postemergence crabgrass; assay type: in vivo, Digitaria sanguinalis
# In short: as §1
# velvetleaf = assay: Test B pre/postemergence velvetleaf; assay type: in vivo, Abutilon theophrasti
# In short: as §1
# giant foxtail = assay: Test B pre/postemergence giant foxtail; assay type: in vivo, Setaria faberii
# In short: as §1
# [1] = Postemergence, Rate 62 g/ha, scale of 0 to 10, 0 is no effect, 10 is complete control
# [2] = Postemergence, Rate 125 g/ha, scale 0 to 10, 0 is no effect, 10 is complete control
# [3] = Postemergence, Rate 500 g/ha, scale 0 to 10, 0 is no effect, 10 is complete control
# [4] = Preemergence, Rate 62 g/ha, scale of 0 to 10 where 0 is no effect and 10 is complete control
# [5] = Preemergence, Rate 125 g/ha, scale 0 to 10, 0 is no effect, 10 is complete control
# [6] = Preemergence, Rate 500 g/ha, scale of 0 to 10 where 0 is no effect and 10 is complete control
# [7] = Rate 250 g/ha, Postemergence, scale of 0 to 10 where 0 is no effect and 10 is complete control
# [8] = Rate 62 g/ha, scale of 0 to 10 where 0 is no effect and 10 is complete control
# [9] = Preemergence, Rate 125 g/ha, scale of 0 to 10 where 0 is no effect and 10 is complete control
# [10] = Preemergence, Rate 250 g/ha, scale 0 (no effect) to 10 (complete control)
# [11] = Rate 500 g/ha, Preemergence, scale 0 to 10 (0 no effect, 10 complete control)
smiles,measurement,setting,value
CC(C)N(C(=O)n1oc(=O)n(CCC(F)(F)F)c1=O)c1ccc(F)cc1F [Compound 525],Rape plant response rating,rape; [1],0
same,Rape plant response rating,rape; [2],0
same,"Plant response rating, Rape",rape; [3],8
same,"Plant response rating, Rape",rape; [4],0
same,Rape plant response rating,rape; [5],0
same,Rape plant response rating,rape; [6],4
same,"Plant response rating, Rape",rape; [7],3
same,Wild oats plant response rating,wild oat; [1],0
same,Wild oats plant response rating,wild oat; [2],2
same,"Plant response rating, Wild oats",wild oat; [3],6
same,"Plant response rating, Wild oats",wild oat; [4],5
same,Wild oats plant response rating,wild oat; [6],8
same,"Plant response rating, Wild oats",wild oat; [7],4
same,Corn plant response rating,corn; [1],0
same,Corn plant response rating,corn; [2],0
same,"Plant response rating, Corn",corn; [3],2
same,"Plant response rating, Corn",corn; [4],0
same,Corn plant response rating,corn; [5],0
same,Corn plant response rating (0 to 10 scale),"corn; Preemergence, Rate 250 g/ha",4
same,Corn plant response rating,corn; [6],8
same,"Plant response rating, Corn",corn; [7],2
same,Redroot pigweed plant response rating,pigweed; [1],2
same,Redroot pigweed plant response rating,pigweed; [2],2
same,"Plant response rating, Redroot pigweed",pigweed; [3],8
same,"Plant response rating, Redroot pigweed",pigweed; [4],0
same,Redroot pigweed plant response rating,pigweed; [5],0
same,Redroot pigweed plant response rating,pigweed; [6],3
same,"Plant response rating, Redroot pigweed",pigweed; [7],9
same,Soybean plant response rating,soybean; [1],3
same,Soybean plant response rating,soybean; [2],5
same,"Plant response rating, Soybean",soybean; [4],0
same,Soybean plant response rating,soybean; [5],0
same,Soybean plant response rating (0 to 10 scale),"soybean; Preemergence, Rate 250 g/ha",0
same,Soybean plant response rating,soybean; [6],0
same,"Plant response rating, Soybean",soybean; [7],5
same,"Plant response rating, Bedstraw",bedstraw; [8],0
same,Bedstraw plant response rating,"bedstraw; Rate 125 g/ha, scale 0 to 10, 0 is no effect, 10 is complete control",0
same,Bedstraw plant response rating (0 to 10 scale),bedstraw; Rate 250 g/ha,0
same,Bedstraw plant response rating,"bedstraw; Rate 500 g/ha, scale of 0 to 10 where 0 is no effect and 10 is complete control",0
same,Sugarbeets plant response rating,sugar beet; [1],0
same,Sugarbeets plant response rating,sugar beet; [2],0
same,"Plant response rating, Sugarbeets",sugar beet; [3],8
same,"Plant response rating, Sugarbeets",sugar beet; [4],5
same,Sugarbeets plant response rating,sugar beet; [5],8
same,Sugarbeets plant response rating,sugar beet; [6],9
same,"Plant response rating, Sugarbeets",sugar beet; [7],6
same,Blackgrass plant response rating,blackgrass; [1],4
same,Blackgrass plant response rating,blackgrass; [2],6
same,"Plant response rating, Blackgrass",blackgrass; [3],8
same,"Plant response rating, Blackgrass",blackgrass; [4],8
same,Blackgrass plant response rating,blackgrass; [5],7
same,Blackgrass plant response rating,blackgrass; [6],8
same,"Plant response rating, Blackgrass",blackgrass; [7],8
same,Cocklebur plant response rating,cocklebur; [1],2
same,Cocklebur plant response rating,cocklebur; [2],2
same,"Plant response rating, Cocklebur",cocklebur; [3],2
same,"Plant response rating, Cocklebur",cocklebur; [4],0
same,Cocklebur plant response rating,cocklebur; [5],0
same,Cocklebur plant response rating (0 to 10 scale),"cocklebur; Preemergence, Rate 250 g/ha",0
same,"Plant response rating, Cocklebur",cocklebur; [7],2
same,Morningglory plant response rating,morningglory; [1],2
same,Morningglory plant response rating,morningglory; [2],2
same,"Plant response rating, Morningglory",morningglory; [3],3
same,"Plant response rating, Morningglory",morningglory; [4],0
same,Morningglory plant response rating,morningglory; [5],0
same,Morningglory plant response rating (0 to 10 scale),"morningglory; Preemergence, Rate 250 g/ha",0
same,Morningglory plant response rating,morningglory; [6],6
same,"Plant response rating, Morningglory",morningglory; [7],2
same,Nutsedge plant response rating,purple nutsedge; [1],0
same,Nutsedge plant response rating,purple nutsedge; [2],0
same,"Plant response rating, Nutsedge",purple nutsedge; [3],5
same,"Plant response rating, Nutsedge",purple nutsedge; [4],0
same,Nutsedge plant response rating,purple nutsedge; [5],0
same,Nutsedge plant response rating (0 to 10 scale),"purple nutsedge; Preemergence, Rate 250 g/ha",0
same,Nutsedge plant response rating,purple nutsedge; [6],0
same,"Plant response rating, Nutsedge",purple nutsedge; [7],5
same,B. signalgrass plant response rating,surinam grass; [1],0
same,B. signalgrass plant response rating,surinam grass; [2],2
same,"Plant response rating, B. signalgrass",surinam grass; [3],8
same,"Plant response rating, B. signalgrass",surinam grass; [4],9
same,B. signalgrass plant response rating,surinam grass; [6],9
same,"Plant response rating, B. signalgrass",surinam grass; [7],2
same,Wheat plant response rating,wheat; [1],0
same,Wheat plant response rating,wheat; [2],2
same,"Plant response rating, Wheat",wheat; [3],5
same,"Plant response rating, Wheat",wheat; [4],3
same,Wheat plant response rating,wheat; [6],3
same,"Plant response rating, Wheat",wheat; [7],5
same,Crabgrass plant response rating,crabgrass; [1],6
same,"Plant response rating, Crabgrass",crabgrass; [3],9
same,"Plant response rating, Crabgrass",crabgrass; [4],9
same,Crabgrass plant response rating,crabgrass; [5],9
same,Crabgrass plant response rating (0 to 10 scale),"crabgrass; Preemergence, Rate 250 g/ha",10
same,Crabgrass plant response rating,crabgrass; [6],10
same,"Plant response rating, Crabgrass",crabgrass; [7],9
same,Velvetleaf plant response rating,velvetleaf; [1],2
same,Velvetleaf plant response rating,velvetleaf; [2],3
same,"Plant response rating, Velvetleaf",velvetleaf; [3],3
same,"Plant response rating, Velvetleaf",velvetleaf; [4],2
same,Velvetleaf plant response rating,velvetleaf; [5],3
same,Velvetleaf plant response rating (0 to 10 scale),"velvetleaf; Preemergence, Rate 250 g/ha",3
same,Velvetleaf plant response rating,velvetleaf; [6],4
same,"Plant response rating, Velvetleaf",velvetleaf; [7],3
same,Giant foxtail plant response rating,giant foxtail; [1],5
same,Giant foxtail plant response rating,giant foxtail; [2],8
same,"Plant response rating, Giant foxtail",giant foxtail; [3],9
same,"Plant response rating, Giant foxtail",giant foxtail; [4],9
same,Giant foxtail plant response rating,giant foxtail; [5],10
same,Giant foxtail plant response rating (0 to 10 scale),"giant foxtail; Preemergence, Rate 250 g/ha",10
same,Giant foxtail plant response rating,giant foxtail; [6],10
same,"Plant response rating, Giant foxtail",giant foxtail; [7],9
C=C(Cn1c(=O)on(C(=O)N(c2ccc(F)cc2)C(C)C)c1=O)C(=O)OC [Compound 732],Rape plant response rating,rape; [4],0
same,"Plant response rating, Rape",rape; [9],0
same,Rape plant response rating,rape; [10],0
same,Rape plant response rating,rape; [11],0
same,Wild oats plant response rating,wild oat; [4],0
same,"Plant response rating, Wild oats",wild oat; [9],0
same,Wild oats plant response rating,wild oat; [10],0
same,Wild oats plant response rating,wild oat; [11],0
same,Corn plant response rating,corn; [4],0
same,"Plant response rating, Corn",corn; [9],0
same,Corn plant response rating,corn; [10],0
same,Corn plant response rating,corn; [11],0
same,Redroot pigweed plant response rating,pigweed; [4],0
same,"Plant response rating, Redroot pigweed",pigweed; [9],0
same,Redroot pigweed plant response rating,pigweed; [10],0
same,Redroot pigweed plant response rating,pigweed; [11],0
same,Soybean plant response rating,soybean; [4],0
same,"Plant response rating, Soybean",soybean; [9],0
same,Soybean plant response rating,soybean; [10],0
same,Soybean plant response rating,soybean; [11],0
same,Bedstraw plant response rating,bedstraw; [8],0
same,"Plant response rating, Bedstraw","bedstraw; Rate 125 g/ha, scale of 0 to 10 where 0 is no effect and 10 is complete control",0
same,Bedstraw plant response rating,"bedstraw; Rate 250 g/ha, scale 0 (no effect) to 10 (complete control)",0
same,Bedstraw plant response rating,"bedstraw; Rate 500 g/ha, scale 0 to 10 (0 no effect, 10 complete control)",0
same,Sugarbeets plant response rating,sugar beet; [4],0
same,"Plant response rating, Sugarbeets",sugar beet; [9],0
same,Sugarbeets plant response rating,sugar beet; [10],0
same,Sugarbeets plant response rating,sugar beet; [11],0
same,Blackgrass plant response rating,blackgrass; [4],0
same,"Plant response rating, Blackgrass",blackgrass; [9],0
same,Blackgrass plant response rating,blackgrass; [10],0
same,Blackgrass plant response rating,blackgrass; [11],0
same,Cocklebur plant response rating,cocklebur; [4],0
same,"Plant response rating, Cocklebur",cocklebur; [9],0
same,Cocklebur plant response rating,cocklebur; [10],0
same,Cocklebur plant response rating,cocklebur; [11],0
same,Morningglory plant response rating,morningglory; [4],0
same,"Plant response rating, Morningglory",morningglory; [9],0
same,Morningglory plant response rating,morningglory; [10],0
same,Morningglory plant response rating,morningglory; [11],0
same,Nutsedge plant response rating,purple nutsedge; [4],0
same,Nutsedge plant response rating,purple nutsedge; [10],0
same,Nutsedge plant response rating,purple nutsedge; [11],0
same,B. signalgrass plant response rating,surinam grass; [4],0
same,"Plant response rating, B. signalgrass",surinam grass; [9],0
same,B. signalgrass plant response rating,surinam grass; [10],0
same,B. signalgrass plant response rating,surinam grass; [11],0
same,Wheat plant response rating,wheat; [4],0
same,"Plant response rating, Wheat",wheat; [9],0
same,Wheat plant response rating,wheat; [10],0
same,Wheat plant response rating,wheat; [11],0
same,Crabgrass plant response rating,crabgrass; [4],0
same,"Plant response rating, Crabgrass",crabgrass; [9],0
same,Crabgrass plant response rating,crabgrass; [10],0
same,Crabgrass plant response rating,crabgrass; [11],0
same,Velvetleaf plant response rating,velvetleaf; [4],0
same,"Plant response rating, Velvetleaf",velvetleaf; [9],0
same,Velvetleaf plant response rating,velvetleaf; [10],0
same,Velvetleaf plant response rating,velvetleaf; [11],0
same,Giant foxtail plant response rating,giant foxtail; [4],0
same,"Plant response rating, Giant foxtail",giant foxtail; [9],0
same,Giant foxtail plant response rating,giant foxtail; [10],0
same,Giant foxtail plant response rating,giant foxtail; [11],0
